Results: article PMC5428509, “Irreversible inhibition of BTK kinase by a novel highly selective inhibitor CHMFL-BTK-11 suppresses inflammatory response in rheumatoid arthritis model” (Scientific Reports, 2017)

Columns and labels:
Test in all cases: biochemical
Design in all cases: KinomeScan competition binding panel (DiscoveRx), percent of control at 1 uM
Details in all cases: read-out: Percent Control
[1] = biological target: T1, JAK1(JH1domain-catalytic) (Homo sapiens, UniProt P23458)
T1 construct: JH1domain-catalytic
T1 sequence (P23458 whole entry): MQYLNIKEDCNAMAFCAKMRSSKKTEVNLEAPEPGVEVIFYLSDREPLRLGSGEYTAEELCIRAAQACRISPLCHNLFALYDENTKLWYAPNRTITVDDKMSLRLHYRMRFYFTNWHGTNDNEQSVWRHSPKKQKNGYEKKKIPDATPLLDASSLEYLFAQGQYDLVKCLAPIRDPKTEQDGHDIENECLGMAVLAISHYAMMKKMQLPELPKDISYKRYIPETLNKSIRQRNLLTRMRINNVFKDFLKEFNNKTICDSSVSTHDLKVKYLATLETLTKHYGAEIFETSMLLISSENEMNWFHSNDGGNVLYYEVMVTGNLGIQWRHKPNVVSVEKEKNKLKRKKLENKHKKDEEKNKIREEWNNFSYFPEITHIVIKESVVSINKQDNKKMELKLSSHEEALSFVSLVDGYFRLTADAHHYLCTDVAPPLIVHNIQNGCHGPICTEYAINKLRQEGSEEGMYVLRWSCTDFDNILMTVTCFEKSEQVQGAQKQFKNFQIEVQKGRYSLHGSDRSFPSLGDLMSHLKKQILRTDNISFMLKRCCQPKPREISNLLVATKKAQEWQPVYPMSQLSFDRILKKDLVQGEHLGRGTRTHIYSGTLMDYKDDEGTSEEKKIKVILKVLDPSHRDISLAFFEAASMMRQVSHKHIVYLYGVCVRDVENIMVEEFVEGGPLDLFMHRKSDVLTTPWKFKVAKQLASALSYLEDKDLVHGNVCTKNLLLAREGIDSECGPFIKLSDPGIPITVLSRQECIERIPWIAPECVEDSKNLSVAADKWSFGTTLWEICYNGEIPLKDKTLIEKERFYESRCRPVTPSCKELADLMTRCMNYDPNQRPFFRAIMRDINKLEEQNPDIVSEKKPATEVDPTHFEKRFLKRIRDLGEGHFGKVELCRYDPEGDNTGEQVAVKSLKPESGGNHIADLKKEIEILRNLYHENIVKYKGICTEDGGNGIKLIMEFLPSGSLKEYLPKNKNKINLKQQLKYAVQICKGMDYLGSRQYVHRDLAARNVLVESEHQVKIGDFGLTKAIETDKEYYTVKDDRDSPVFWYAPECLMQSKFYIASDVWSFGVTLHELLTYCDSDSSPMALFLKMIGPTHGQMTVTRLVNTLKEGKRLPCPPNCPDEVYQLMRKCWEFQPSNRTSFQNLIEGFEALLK
How it was run: (§1)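 KinomeScan technology used to profile binding across a panel of 456 kinases and mutants.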

CAMK1 = CAMK1 (Homo sapiens, UniProt Q14012)
CAMK1, sequence (Q14012 whole entry): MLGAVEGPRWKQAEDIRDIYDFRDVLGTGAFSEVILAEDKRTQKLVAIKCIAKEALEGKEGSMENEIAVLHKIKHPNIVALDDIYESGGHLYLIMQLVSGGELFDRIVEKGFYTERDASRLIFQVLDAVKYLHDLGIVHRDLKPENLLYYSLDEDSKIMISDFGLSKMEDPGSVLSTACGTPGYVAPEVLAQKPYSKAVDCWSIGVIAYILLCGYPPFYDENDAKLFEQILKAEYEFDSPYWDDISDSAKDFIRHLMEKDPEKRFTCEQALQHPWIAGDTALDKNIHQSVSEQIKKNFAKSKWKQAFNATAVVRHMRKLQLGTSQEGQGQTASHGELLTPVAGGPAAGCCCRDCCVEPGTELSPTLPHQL
How it was run: as §1

PIK3CA(E545A) = PIK3CA(E545A) (Homo sapiens, UniProt P42336, E545A)
PIK3CA(E545A), sequence (P42336 whole entry E545A): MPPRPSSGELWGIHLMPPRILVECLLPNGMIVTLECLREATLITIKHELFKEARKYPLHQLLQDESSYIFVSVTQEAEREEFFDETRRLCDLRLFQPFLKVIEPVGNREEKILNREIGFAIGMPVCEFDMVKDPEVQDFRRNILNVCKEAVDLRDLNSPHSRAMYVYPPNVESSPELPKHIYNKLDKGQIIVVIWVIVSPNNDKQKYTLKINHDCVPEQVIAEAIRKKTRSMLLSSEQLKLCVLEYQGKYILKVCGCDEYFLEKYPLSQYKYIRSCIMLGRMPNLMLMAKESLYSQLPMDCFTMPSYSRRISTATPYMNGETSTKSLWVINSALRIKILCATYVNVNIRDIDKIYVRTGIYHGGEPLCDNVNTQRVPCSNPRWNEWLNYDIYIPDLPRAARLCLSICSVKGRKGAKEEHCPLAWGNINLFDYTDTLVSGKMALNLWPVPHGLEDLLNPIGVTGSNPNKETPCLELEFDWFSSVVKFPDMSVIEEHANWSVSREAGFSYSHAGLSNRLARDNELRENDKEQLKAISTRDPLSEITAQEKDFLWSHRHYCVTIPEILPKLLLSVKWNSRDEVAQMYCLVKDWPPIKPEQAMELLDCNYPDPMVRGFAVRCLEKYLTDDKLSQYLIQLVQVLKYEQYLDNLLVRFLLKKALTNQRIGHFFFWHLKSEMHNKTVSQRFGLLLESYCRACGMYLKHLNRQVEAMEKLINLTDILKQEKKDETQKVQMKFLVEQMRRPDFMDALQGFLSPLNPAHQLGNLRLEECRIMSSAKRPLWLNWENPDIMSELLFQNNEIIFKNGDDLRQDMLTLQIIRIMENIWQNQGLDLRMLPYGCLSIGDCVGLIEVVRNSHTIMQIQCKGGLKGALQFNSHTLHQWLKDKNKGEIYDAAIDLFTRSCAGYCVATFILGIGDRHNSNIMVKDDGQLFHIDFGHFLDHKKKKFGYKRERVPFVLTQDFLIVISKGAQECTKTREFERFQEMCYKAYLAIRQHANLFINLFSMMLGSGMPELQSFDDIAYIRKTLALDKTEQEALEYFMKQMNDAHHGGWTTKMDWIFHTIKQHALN
How it was run: as §1

[2] = biological target: T2, ABL1(Q252H)-phosphorylated (Homo sapiens, UniProt P00519, Q252H)
T2 construct: phosphorylated
How it was run: as §1

MAP3K3 = MAP3K3 (Homo sapiens, UniProt Q99759)
MAP3K3, sequence (Q99759 whole entry): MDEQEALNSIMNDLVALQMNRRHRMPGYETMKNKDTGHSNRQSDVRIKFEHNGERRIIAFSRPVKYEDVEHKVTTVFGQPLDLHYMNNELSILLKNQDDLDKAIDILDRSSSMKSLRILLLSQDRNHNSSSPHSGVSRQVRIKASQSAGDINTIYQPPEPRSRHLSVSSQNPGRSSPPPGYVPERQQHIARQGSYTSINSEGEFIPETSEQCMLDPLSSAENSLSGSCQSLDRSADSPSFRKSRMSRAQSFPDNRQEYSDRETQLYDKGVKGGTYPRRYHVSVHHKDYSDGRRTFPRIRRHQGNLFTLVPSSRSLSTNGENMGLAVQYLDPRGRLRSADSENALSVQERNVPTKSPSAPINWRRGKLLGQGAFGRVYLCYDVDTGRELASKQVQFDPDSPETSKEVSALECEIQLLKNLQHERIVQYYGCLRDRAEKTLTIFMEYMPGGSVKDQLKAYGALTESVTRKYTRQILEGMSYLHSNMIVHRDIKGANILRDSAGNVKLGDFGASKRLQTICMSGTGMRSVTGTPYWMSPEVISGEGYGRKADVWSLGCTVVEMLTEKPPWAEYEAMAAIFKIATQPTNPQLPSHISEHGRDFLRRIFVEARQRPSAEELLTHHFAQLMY
How it was run: as §1

DAPK2 = DAPK2 (Homo sapiens, UniProt Q9UIK4)
How it was run: as §1

ERK3 = biological target: T3, ERK3 (Homo sapiens, UniProt Q16659)
T3 construct: gene MAPK6
How it was run: as §1

BMPR1A = BMPR1A (Homo sapiens, UniProt P36894)
How it was run: as §1

FLT3(N841I) = FLT3(N841I) (Homo sapiens, UniProt P36888, N841I)
How it was run: as §1

PIK3CG = PIK3CG (Homo sapiens, UniProt P48736)
How it was run: as §1

IGF1R = IGF1R (Homo sapiens, UniProt P08069)
How it was run: as §1

FGFR2 = FGFR2 (Homo sapiens, UniProt P21802)
How it was run: as §1

KIT(V559D,T670I) = KIT(V559D,T670I) (Homo sapiens, UniProt P10721, T670I/V559D)
KIT(V559D,T670I), sequence (P10721 whole entry V559D/T670I): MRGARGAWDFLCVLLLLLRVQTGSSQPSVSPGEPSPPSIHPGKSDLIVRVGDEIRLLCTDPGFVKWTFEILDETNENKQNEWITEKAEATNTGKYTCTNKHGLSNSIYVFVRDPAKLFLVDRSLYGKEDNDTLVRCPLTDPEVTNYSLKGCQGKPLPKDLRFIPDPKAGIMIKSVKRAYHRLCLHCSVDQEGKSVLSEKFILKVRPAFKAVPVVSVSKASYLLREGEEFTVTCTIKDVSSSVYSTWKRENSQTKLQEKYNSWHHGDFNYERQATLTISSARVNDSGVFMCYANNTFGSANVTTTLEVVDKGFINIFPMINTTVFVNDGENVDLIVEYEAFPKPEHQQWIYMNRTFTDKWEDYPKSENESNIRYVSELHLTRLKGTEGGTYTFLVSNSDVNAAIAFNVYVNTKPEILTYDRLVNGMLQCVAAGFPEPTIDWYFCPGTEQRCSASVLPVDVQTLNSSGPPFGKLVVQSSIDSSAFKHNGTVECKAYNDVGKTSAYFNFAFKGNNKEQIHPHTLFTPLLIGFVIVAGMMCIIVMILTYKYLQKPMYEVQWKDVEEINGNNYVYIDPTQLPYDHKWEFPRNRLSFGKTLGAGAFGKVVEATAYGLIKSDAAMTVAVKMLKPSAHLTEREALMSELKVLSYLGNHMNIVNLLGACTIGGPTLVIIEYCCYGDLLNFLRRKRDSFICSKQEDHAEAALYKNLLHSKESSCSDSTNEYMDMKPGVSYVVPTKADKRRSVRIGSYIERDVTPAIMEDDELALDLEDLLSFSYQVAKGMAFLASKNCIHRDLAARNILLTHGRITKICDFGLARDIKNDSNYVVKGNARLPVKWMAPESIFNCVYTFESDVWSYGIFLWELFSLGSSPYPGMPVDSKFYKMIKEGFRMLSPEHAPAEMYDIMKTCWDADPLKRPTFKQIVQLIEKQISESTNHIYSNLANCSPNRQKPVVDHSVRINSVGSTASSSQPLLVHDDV
How it was run: as §1

[3] = biological target: T4, RPS6KA5(Kin.Dom.2-C-terminal) (Homo sapiens, UniProt O75582)
T4 construct: Kin.Dom.2-C-terminal
How it was run: as §1

CDKL3 = CDKL3 (Homo sapiens, UniProt Q8IVW4)
CDKL3, sequence (Q8IVW4 whole entry): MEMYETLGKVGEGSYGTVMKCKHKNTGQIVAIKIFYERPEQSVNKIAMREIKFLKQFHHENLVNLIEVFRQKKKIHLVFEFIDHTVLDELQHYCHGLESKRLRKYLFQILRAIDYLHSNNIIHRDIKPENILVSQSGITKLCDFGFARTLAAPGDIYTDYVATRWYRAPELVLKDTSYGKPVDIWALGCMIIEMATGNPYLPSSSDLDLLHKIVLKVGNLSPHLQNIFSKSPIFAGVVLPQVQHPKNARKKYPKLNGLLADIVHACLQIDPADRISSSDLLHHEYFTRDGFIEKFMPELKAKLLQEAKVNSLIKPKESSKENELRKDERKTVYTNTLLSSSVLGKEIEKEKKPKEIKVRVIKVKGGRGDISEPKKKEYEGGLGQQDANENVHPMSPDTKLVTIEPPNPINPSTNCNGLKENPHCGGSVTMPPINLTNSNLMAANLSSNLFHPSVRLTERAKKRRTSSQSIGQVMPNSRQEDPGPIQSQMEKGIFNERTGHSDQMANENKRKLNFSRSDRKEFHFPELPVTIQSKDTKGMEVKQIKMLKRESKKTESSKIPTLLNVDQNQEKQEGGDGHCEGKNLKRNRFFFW
How it was run: as §1

KIT(D816H) = KIT(D816H) (Homo sapiens, UniProt P10721, D816H)
KIT(D816H), sequence (P10721 whole entry D816H): as the sequence (P10721 whole entry V559D/T670I) above, with D559V, I670T, D816H counted along it
How it was run: as §1

ROS1 = ROS1 (Homo sapiens, UniProt P08922)
How it was run: as §1

NEK5 = NEK5 (Homo sapiens, UniProt Q6P3R8)
How it was run: as §1

PDGFRB = PDGFRB (Homo sapiens, UniProt P09619)
How it was run: as §1

BRK = biological target: T5, BRK (Homo sapiens, UniProt Q13882)
T5 construct: gene PTK6
How it was run: as §1

FYN = FYN (Homo sapiens, UniProt P06241)
How it was run: as §1

FLT3(ITD) = FLT3(ITD) (Homo sapiens, UniProt P36888, ITD)
How it was run: as §1

ACVR1 = ACVR1 (Homo sapiens, UniProt Q04771)
How it was run: as §1

MST2 = biological target: T6, MST2 (Homo sapiens, UniProt Q13188)
T6 construct: gene STK3
How it was run: as §1

Compound: C=CC(=O)Nc1cc(-n2c(=O)ccc3cnc4ccc(-n5cccn5)cc4c32)ccc1C [CHMFL-BTK-11]
- remaining binding at 1 µM [1]: 100%
- remaining binding at 1 µM (CAMK1): 98%
- remaining binding at 1 µM (PIK3CA(E545A)): 76%
- remaining binding at 1 µM [2]: 100%
- remaining binding at 1 µM (MAP3K3): 100%
- remaining binding at 1 µM (DAPK2): 100%
- remaining binding at 1 µM (ERK3): 100%
- remaining binding at 1 µM (BMPR1A): 100%
- remaining binding at 1 µM (FLT3(N841I)): 100%
- remaining binding at 1 µM (PIK3CG): 73%
- remaining binding at 1 µM (IGF1R): 100%
- remaining binding at 1 µM (FGFR2): 88%
- remaining binding at 1 µM (KIT(V559D,T670I)): 99%
- remaining binding at 1 µM [3]: 89%
- remaining binding at 1 µM (CDKL3): 90%
- remaining binding at 1 µM (KIT(D816H)): 100%
- remaining binding at 1 µM (ROS1): 94%
- remaining binding at 1 µM (NEK5): 73%
- remaining binding at 1 µM (PDGFRB): 100%
- remaining binding at 1 µM (BRK): 100%
- remaining binding at 1 µM (FYN): 99%
- remaining binding at 1 µM (FLT3(ITD)): 89%
- remaining binding at 1 µM (ACVR1): 100%
- remaining binding at 1 µM (MST2): 97%
